From article PMC3103472, “The p75 neurotrophin receptor localization in blood-CSF barrier: expression in choroid plexus epithelium” (BMC Neuroscience, 2011)

Columns and labels:
[1] = test system: choroid plexus epithelial cells; experiment: Cell death quantification with Cell Death Detection ELISAPLUS kit; assay type: cell-based, rat; conditions: primary choroid plexus epithelial cells, Aβ40 5 mg/ml, 24 h, ELISA PLUS kit
Description: (§1) Primary cultures from choroid plexus epithelial cells from P3-P5 Wistar rats were prepared as described previously. Cells were grown to confluence for 5-7 days and serum starved for 2 hours. Cultures were maintained at 37°C in a humidified atmosphere containing 5% CO2, and cultivated for 7 days prior to experimentation. Human analogue peptides corresponding to Aβ1-40 and scrambled Aβ1-40 (AnaSpec, Inc.) were added. 24 hours after stimulation, cells were either fixed for immunocytochemical analysis or homogenized for immunoblot determination. For ICD p75NTR detection primary cultures cells proteasome inhibitor epoxomycin (1 μM) (Sigma) was applied 1.5 hours prior to Aβ treatment.
For cell death quantification, after incubation for 24 h with Aβ40 (5 mg/ml), choroid plexus epithelial cells in vitro were measured with Cell Death Detection ELISAPLUS kit (Roche Diagnostics) as described previously.

p75NTR = experiment: Proteolytic processing of p75NTR (Western blot, immunofluorescence, cell fractionation); assay type: cell-based, rat
Description: as §1, with “24 hours after stimulation, cells were either fixed for immunocytochemical analysis or homogenized for immunoblot determination.” left out
For Western blot analysis cultures cells were washed once with ice-cold PBS and lysed in PIK buffer (150 mM NaCl, 20 mM TrisHCl pH 7.4, 1% NP40 and protease inhibitors: 1 μg/mL aprotinin, 1 μg/mL leupeptin and 1 μg/mL phenylmethylsulfonyl fluoride, PMSF). For cell fractionation cells were lysed with C buffer (10 mM HEPES, 60 mM KCl, 1 mM EDTA, 0.075% Triton X100, 1 mM DTT with protease inhibitors. The pellet nuclei was obtained by centrifugation 325 g, 4 minutes and resuspended in NB buffer (20 mM TrisHCl pH 8, 420 mM NaCl, 15 mM MgCl2, 0.2 mM EDTA, 25% Glicerol and protease inhibitors). Thereafter, the nuclei supernatant were obtained after centrifugation 9000 g, 10 minutes. After running the samples in acrylamide gels, proteins were transferred (immobilon, Bio-Rad) and membranes were incubated with the corresponding primary at 4°C overnight. Afterwards, membranes were washed and incubated with secondary antibodies. Membranes were washed several times with Tween-TBS and developed with ECL plus (Amersham). Western blot membranes were re-blotted with unrelated proteins (α-actin) as an internal standard and normalized for protein load. Densitometric analysis was performed using ImageJ software (NIH Image). A representative blot is shown from a total of at lest three independent experiments.
Immunocytochemistry was performed with primary cultures from choroid plexus plated on 20 mm coverslips and fixed. Rat and human choroid plexus were also fixed with 4% paraformaldehyde and processed for histochemical analysis. […]

**Q.** Which “increase of cell death upon control cells” value [1] does the source give for “Aβ1-40: Human analogue peptides corresponding to Aβ1-40 (AnaSpec, Inc.)” here?
**A.** Its value is 29%.

**Q.** What about the “release of p75NTR-ICD fragment (19 KDa)” value (p75NTR; Aβ1-40 2.5 μg/mL for 15, 30 and 60 minutes, proteasome inhibitor pre-treatment, Western blot with antibody 9992) of the same substance?
**A.** Its value is “induced a release of ICD fragment at 15 and 30 minutes”.

**Q.** And the “nuclear accumulation of p75NTR-ICD, immunofluorescence” value (p75NTR; Aβ1-40 2.5 μg/mL, 60 minutes, proteasome inhibitor 1.5 hours before, confocal microscopy)?
**A.** Its value is “considerable accumulation of p75NTR-ICD occurred in the majority of nuclei”.

**Q.** And the “p75NTR-ICD 19 KDa band in nuclear extracts” value (p75NTR; Aβ1-40 for 15, 30 and 60 minutes, nuclear and cytoplasmic extracts, Western blot with antibody 9992)?
**A.** The value was “enriched in nuclear extracts”.
